# In patent publication US20260183295A1, “METHODS AND COMPOSITIONS FOR TREATING CANCER” (Onconova Therapeutics, Inc., priority 2022, published 2026):
# What was measured:
# PyMT cells = assay: Growth and recovery, 6 days treatment and 4 days recovery, cell counts; format: cell-based, mouse; conditions: 6 days treatment, counted on days 0, 3, 6, 10
# From the text: Following 6 days of treatment, the drug treatments were stopped and the cells allowed to recover for 4 days. Cell numbers were counted on days 0, 3, 6, and 10, and the results plotted.
# GSK3A = target: T1, GSK3A (Homo sapiens, UniProt P49840); assay: CETSA-MS, MDA-MB-231 cell lysates and intact cells; format: cell-based; conditions: present in both MDA-MB-231 cell lysates and intact cells
# T1 construct: endogenous in cells; host or cells: MDA-MB-231
# Method: (§1) Following treatment, cell lysates were thermally treated in a thermal gradient profile across a temperature range. Following the thermal shift, cell lysates were spun by centrifuge to pellet aggregate protein and the supernatant withdrawn. The supernatant was then denatured in buffer and heated to denature, reduce, and alkylate the supernatant proteins. Following heating and cooling to room temperature, cold acetone was added to the supernatant samples and proteins precipitated.
# (§2) TNBC MDA-MB-231 cells were grown at 37° C. in 5% CO2 and suspended in warm media and split into 4 equal volumes. […] Cells were incubated and then pelleted. Following pelleting, the cells were washed, resuspended, and heated in a thermal gradient. Following heating, the samples were flash frozen and lysed in lysis buffer, agitated by vortex, and sonicated prior to centrifugation. The supernatant was collected and denaturation buffer added. Cold acetone was then added to the cell samples, and protein collected by centrifugation. Pellets were then washed twice with cold acetone and the washed pellets prior to labeling.
# (§3) The intact cell protein samples and lysate protein samples were then digested and labeled for mass spectrometry analysis according to the manufacturer's recommended protocols. Digested and labeled protein samples were analyzed by mass spectrometry proteomic analysis and the resulting protein targets were analyzed and plotted.
# AAK1 [1] = target: T2, AAK1 (Homo sapiens, UniProt Q2M2I8); assay: CETSA-MS, MDA-MB-231 cell lysates and intact cells; format: cell-based; conditions: present in both MDA-MB-231 cell lysates and intact cells
# T2 construct: endogenous in cells; host or cells: MDA-MB-231
# T2 sequence (Q2M2I8 whole entry): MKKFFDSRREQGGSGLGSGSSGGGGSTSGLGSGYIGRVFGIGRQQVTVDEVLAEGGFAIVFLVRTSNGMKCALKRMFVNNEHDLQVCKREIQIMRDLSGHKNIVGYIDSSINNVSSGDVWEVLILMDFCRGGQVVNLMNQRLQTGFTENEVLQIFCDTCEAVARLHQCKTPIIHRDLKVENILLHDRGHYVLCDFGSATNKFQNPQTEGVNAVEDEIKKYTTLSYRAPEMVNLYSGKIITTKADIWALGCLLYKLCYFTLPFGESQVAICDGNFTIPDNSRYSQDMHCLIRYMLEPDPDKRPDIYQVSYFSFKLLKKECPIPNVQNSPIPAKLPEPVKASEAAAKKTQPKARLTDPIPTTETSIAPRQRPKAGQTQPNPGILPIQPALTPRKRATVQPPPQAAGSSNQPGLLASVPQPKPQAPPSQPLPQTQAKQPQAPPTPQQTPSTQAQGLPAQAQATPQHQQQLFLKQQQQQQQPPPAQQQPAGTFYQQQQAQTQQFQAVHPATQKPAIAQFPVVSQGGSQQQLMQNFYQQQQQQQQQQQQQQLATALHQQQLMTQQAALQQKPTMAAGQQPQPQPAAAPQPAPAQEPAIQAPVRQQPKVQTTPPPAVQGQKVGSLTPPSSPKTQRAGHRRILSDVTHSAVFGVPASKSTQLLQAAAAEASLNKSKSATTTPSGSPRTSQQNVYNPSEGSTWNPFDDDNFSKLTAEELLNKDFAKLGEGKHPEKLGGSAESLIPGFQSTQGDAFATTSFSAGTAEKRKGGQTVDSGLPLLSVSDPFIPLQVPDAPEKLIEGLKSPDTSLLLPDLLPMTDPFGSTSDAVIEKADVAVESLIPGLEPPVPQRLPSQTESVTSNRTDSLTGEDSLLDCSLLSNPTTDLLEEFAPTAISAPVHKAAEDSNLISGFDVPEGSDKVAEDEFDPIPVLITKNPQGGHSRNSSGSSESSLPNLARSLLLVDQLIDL
# Method: as §1, §2, §3
# BMP2K [2] = target: T3, BMP2K (Homo sapiens, UniProt Q9NSY1); assay: CETSA-MS, MDA-MB-231 cell lysates and intact cells; format: cell-based; conditions: present in both MDA-MB-231 cell lysates and intact cells
# T3 construct: endogenous in cells; host or cells: MDA-MB-231
# T3 sequence (Q9NSY1 whole entry): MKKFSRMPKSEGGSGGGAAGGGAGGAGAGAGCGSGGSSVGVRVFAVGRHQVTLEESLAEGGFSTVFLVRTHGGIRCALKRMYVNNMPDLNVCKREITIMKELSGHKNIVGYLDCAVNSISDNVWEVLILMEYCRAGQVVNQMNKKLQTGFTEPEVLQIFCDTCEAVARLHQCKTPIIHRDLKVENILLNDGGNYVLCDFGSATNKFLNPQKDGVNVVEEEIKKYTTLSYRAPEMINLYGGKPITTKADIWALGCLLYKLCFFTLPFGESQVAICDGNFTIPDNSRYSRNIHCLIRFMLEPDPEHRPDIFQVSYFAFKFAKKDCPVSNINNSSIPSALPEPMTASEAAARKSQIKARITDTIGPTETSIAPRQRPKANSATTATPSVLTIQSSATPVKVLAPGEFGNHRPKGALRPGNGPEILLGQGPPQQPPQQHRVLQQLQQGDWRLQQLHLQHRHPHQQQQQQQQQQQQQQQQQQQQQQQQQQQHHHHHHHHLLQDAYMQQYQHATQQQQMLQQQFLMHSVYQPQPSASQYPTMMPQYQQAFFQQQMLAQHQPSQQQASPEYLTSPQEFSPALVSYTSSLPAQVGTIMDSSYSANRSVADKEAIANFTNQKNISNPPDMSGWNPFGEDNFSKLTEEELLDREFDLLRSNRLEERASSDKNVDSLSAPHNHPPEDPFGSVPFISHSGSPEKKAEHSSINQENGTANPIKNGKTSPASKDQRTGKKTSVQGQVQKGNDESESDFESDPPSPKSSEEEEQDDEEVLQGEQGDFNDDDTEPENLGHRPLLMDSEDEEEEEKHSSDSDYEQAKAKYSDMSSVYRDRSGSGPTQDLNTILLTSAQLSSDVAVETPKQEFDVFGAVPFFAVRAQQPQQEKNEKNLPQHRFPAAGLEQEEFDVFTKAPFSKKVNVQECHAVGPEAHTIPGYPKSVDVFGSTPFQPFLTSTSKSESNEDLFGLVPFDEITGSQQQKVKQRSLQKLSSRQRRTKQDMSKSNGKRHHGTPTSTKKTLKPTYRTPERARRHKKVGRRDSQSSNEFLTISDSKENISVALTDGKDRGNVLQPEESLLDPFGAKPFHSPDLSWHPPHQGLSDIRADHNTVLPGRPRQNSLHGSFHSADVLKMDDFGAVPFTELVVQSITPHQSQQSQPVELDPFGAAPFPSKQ
# Method: as §1, §2, §3
# GSK3B [3] = target: T4, GSK3B (Homo sapiens, UniProt P49841); assay: CETSA-MS, MDA-MB-231 cell lysates and intact cells; format: cell-based; conditions: present in both MDA-MB-231 cell lysates and intact cells
# T4 construct: endogenous in cells; host or cells: MDA-MB-231
# T4 sequence (P49841 whole entry): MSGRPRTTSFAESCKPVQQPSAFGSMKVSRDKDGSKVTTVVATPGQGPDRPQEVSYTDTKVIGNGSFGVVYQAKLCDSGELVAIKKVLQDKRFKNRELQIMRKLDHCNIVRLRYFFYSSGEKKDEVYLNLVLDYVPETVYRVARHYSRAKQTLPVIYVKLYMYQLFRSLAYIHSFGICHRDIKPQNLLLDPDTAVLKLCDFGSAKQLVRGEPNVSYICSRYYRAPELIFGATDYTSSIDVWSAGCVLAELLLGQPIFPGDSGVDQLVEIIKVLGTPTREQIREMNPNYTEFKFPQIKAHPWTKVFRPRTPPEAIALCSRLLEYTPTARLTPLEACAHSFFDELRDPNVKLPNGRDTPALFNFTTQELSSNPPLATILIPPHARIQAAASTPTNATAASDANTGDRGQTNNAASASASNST
# Method: as §1, §2, §3
# CHEK1 [4] = target: T5, CHEK1 (Homo sapiens, UniProt O14757); assay: CETSA-MS, MDA-MB-231 cell lysates and intact cells; format: cell-based; conditions: present in both MDA-MB-231 cell lysates and intact cells
# T5 construct: endogenous in cells; host or cells: MDA-MB-231
# T5 sequence (O14757 1-476): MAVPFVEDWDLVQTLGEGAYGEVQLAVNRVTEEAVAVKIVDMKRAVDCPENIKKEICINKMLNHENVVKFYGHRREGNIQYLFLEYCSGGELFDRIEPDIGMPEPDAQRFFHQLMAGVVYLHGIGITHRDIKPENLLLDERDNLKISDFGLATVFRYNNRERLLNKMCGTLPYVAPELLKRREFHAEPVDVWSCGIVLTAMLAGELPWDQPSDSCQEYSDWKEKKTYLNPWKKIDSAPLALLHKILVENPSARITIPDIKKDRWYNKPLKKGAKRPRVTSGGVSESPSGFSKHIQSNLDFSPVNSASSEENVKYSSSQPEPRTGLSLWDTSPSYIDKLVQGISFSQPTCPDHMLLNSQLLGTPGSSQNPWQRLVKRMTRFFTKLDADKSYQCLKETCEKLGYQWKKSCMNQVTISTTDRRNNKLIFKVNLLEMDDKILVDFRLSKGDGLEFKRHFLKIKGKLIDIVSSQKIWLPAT
# Method: as §1, §2, §3
# CDK4/cyclin D1 = CDK4/cyclin D1 (Homo sapiens, UniProt P11802); assay: CDK4/cyclin D1 NanoBret IC50; format: cell-based
# CDK4/cyclin D1, sequence (P11802 whole entry): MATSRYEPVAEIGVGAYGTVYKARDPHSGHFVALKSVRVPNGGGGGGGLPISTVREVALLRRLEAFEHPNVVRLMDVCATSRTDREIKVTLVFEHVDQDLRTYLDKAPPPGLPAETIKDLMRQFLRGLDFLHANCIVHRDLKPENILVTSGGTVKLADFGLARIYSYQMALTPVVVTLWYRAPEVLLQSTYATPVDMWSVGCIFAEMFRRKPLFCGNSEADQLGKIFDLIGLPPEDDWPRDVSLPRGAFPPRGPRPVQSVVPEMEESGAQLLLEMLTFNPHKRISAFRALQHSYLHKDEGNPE
# CDK4/cyclin D1, sequence (P24385 whole entry partner): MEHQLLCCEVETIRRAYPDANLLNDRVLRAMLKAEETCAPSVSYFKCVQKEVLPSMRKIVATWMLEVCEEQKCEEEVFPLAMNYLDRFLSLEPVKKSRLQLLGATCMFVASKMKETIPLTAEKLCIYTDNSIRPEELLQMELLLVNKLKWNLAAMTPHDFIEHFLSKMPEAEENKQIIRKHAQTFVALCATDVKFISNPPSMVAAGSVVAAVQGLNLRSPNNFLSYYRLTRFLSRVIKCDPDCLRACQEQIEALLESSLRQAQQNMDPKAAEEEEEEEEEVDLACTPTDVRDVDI
# MDA-MB-231 cells = assay: MTT assay, 24 hours; format: cell-based
# EPHA2 = target: T6, EPHA2 (Homo sapiens, UniProt P29317); assay: CETSA-MS, MDA-MB-231 cell lysates; format: binding; conditions: 2 μM and 20 μM
# T6 construct: endogenous in cells; host or cells: MDA-MB-231
# Method: as §1, §3
# MAP11 = target: T7, MAP11 (Homo sapiens, UniProt Q8WVR3); assay: CETSA-MS, MDA-MB-231 cell lysates; format: binding; conditions: 2 μM and 20 μM
# T7 construct: endogenous in cells; host or cells: MDA-MB-231
# Method: as §1, §3
# AAK1 [5] = target: T2, AAK1; assay: CETSA-MS, MDA-MB-231 cell lysates; format: binding; conditions: 2 μM and 20 μM
# Method: as §1, §3
# TGFBR2 = target: T8, TGFBR2 (Homo sapiens, UniProt P37173); assay: CETSA-MS, MDA-MB-231 cell lysates; format: binding; conditions: 2 μM and 20 μM
# T8 construct: endogenous in cells; host or cells: MDA-MB-231
# Method: as §1, §3
# CDK2 = target: T9, CDK2 (Homo sapiens, UniProt P24941); assay: CETSA-MS, MDA-MB-231 cell lysates; format: binding; conditions: 2 μM and 20 μM
# T9 construct: endogenous in cells; host or cells: MDA-MB-231
# Method: as §1, §3
# MAPKAPK5 = target: T10, MAPKAPK5 (Homo sapiens, UniProt Q8IW41); assay: CETSA-MS, MDA-MB-231 cell lysates; format: binding; conditions: 2 μM and 20 μM
# T10 construct: endogenous in cells; host or cells: MDA-MB-231
# Method: as §1, §3
# CDC42BPB = target: T11, CDC42BPB (Homo sapiens, UniProt Q9Y5S2); assay: CETSA-MS, MDA-MB-231 cell lysates; format: binding; conditions: 2 μM and 20 μM
# T11 construct: endogenous in cells; host or cells: MDA-MB-231
# Method: as §1, §3
# BMP2K [6] = target: T3, BMP2K; assay: CETSA-MS, MDA-MB-231 cell lysates; format: binding; conditions: 2 μM and 20 μM
# Method: as §1, §3
# BUB1 = BUB1 (Homo sapiens, UniProt O43683); assay: CETSA-MS, MDA-MB-231 cell lysates; format: binding; conditions: 2 μM and 20 μM
# Method: as §1, §3
# STK17A = target: T12, STK17A (Homo sapiens, UniProt Q9UEE5); assay: CETSA-MS, MDA-MB-231 cell lysates; format: binding; conditions: 2 μM and 20 μM
# T12 construct: endogenous in cells; host or cells: MDA-MB-231
# Method: as §1, §3
# CPQ = target: T13, CPQ (Homo sapiens, UniProt Q9Y646); assay: CETSA-MS, MDA-MB-231 cell lysates; format: binding; conditions: 2 μM and 20 μM
# T13 construct: endogenous in cells; host or cells: MDA-MB-231
# T13 sequence (Q9Y646 45-472): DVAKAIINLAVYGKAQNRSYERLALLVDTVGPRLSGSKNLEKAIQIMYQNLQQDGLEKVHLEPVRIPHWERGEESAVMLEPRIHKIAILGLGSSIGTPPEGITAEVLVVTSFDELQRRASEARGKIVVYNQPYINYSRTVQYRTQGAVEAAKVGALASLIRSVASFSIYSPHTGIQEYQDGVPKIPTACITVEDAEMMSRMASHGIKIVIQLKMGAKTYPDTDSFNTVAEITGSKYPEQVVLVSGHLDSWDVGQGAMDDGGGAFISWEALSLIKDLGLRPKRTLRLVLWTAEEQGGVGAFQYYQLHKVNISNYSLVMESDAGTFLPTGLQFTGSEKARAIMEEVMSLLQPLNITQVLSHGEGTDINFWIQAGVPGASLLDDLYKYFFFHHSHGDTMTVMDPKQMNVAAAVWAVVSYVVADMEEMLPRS
# Method: as §1, §3
# PER3 = target: T14, PER3 (Homo sapiens, UniProt P56645); assay: CETSA-MS, MDA-MB-231 cell lysates; format: binding; conditions: 2 μM and 20 μM
# T14 construct: endogenous in cells; host or cells: MDA-MB-231
# Method: as §1, §3
# GSK3B [7] = target: T4, GSK3B; assay: CETSA-MS, MDA-MB-231 cell lysates; format: binding; conditions: 2 μM and 20 μM
# Method: as §1, §3
# LIMK1 = target: T15, LIMK1 (Homo sapiens, UniProt P53667); assay: CETSA-MS, MDA-MB-231 cell lysates; format: binding; conditions: 2 μM and 20 μM
# T15 construct: endogenous in cells; host or cells: MDA-MB-231
# T15 sequence (P53667 whole entry): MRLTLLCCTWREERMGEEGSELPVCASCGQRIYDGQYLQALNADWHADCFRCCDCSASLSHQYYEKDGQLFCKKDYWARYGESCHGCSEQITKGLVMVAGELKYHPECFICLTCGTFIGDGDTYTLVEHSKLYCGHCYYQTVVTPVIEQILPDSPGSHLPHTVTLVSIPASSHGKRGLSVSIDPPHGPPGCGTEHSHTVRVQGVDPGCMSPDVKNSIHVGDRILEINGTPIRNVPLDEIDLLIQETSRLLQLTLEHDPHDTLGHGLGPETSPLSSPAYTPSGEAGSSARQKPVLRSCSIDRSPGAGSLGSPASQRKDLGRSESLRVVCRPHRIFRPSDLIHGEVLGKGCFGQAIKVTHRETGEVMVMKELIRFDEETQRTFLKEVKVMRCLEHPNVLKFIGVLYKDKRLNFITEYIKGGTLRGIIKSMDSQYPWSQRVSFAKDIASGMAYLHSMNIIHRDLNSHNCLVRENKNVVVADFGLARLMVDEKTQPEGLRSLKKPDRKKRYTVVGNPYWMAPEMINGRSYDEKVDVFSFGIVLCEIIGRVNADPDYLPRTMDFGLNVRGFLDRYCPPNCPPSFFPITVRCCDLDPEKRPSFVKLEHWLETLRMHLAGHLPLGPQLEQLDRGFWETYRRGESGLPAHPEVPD
# Method: as §1, §3
# UVSSA = target: T16, UVSSA (Homo sapiens, UniProt Q2YD98); assay: CETSA-MS, MDA-MB-231 cell lysates; format: binding; conditions: 2 μM and 20 μM
# T16 construct: endogenous in cells; host or cells: MDA-MB-231
# Method: as §1, §3
# ZNF260 = target: T17, ZNF260 (Homo sapiens, UniProt Q3ZCT1); assay: CETSA-MS, MDA-MB-231 cell lysates; format: binding; conditions: 2 μM and 20 μM
# T17 construct: endogenous in cells; host or cells: MDA-MB-231
# T17 sequence (Q3ZCT1 whole entry): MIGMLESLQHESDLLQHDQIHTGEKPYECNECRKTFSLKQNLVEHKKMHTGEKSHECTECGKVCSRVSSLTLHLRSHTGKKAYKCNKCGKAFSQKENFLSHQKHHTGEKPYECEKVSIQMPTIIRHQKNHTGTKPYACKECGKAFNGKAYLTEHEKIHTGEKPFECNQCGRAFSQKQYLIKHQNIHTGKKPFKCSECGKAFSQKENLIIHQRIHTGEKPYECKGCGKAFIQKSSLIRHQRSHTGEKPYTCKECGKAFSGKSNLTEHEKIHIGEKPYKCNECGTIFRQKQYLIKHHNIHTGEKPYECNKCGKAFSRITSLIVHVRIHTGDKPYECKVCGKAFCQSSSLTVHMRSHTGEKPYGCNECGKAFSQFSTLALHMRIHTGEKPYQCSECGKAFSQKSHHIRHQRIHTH
# Method: as §1, §3
# CHEK1 [8] = target: T5, CHEK1; assay: CETSA-MS, MDA-MB-231 cell lysates; format: binding; conditions: 2 μM and 20 μM
# Method: as §1, §3
# CDK5 = target: T18, CDK5 (Homo sapiens, UniProt Q00535); assay: CETSA-MS, MDA-MB-231 cell lysates; format: binding; conditions: 2 μM and 20 μM
# T18 construct: endogenous in cells; host or cells: MDA-MB-231
# Method: as §1, §3
# ZCRB1 = target: T19, ZCRB1 (Homo sapiens, UniProt Q8TBF4); assay: CETSA-MS, MDA-MB-231 cell lysates; format: binding; conditions: 2 μM and 20 μM
# T19 construct: endogenous in cells; host or cells: MDA-MB-231
# T19 sequence (Q8TBF4 whole entry): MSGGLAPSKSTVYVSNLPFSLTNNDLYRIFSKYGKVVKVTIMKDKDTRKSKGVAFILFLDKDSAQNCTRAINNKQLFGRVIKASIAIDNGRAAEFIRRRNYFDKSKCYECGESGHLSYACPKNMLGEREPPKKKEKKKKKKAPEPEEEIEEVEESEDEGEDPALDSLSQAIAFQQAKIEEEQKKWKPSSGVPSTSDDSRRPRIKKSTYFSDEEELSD
# Method: as §1, §3
# Caspase 3 = assay: Western blot, MDA-MB-231 cells, 24 hours; format: cell-based; conditions: 2.5, 5, 10 μM, versus Comparator 1, 2 and 4
compound,measurement,setting,value
"CN1CCN(c2ccc(Nc3ncc4cc(C#N)c(=O)n(C5CCCC5)c4n3)cc2)CC1 [Compound 1, 8-cyclopentyl-2-((4-(4-methylpiperazin-1-yl)phenyl)amino)-7-oxo-7,8-dihydropyrido[2,3-d]pyrimidine-6-carbonitrile]","PyMT cell numbers, treatment and recovery phase",PyMT cells,small decrease in cell number at day 3 that then increased throughout the rest of the experiment
same,Group (CETSA-MS thermal shift),GSK3A,Stabilization
same,Group (CETSA-MS thermal shift),AAK1 [1],Stabilization
same,Group (CETSA-MS thermal shift),BMP2K [2],Stabilization
same,Group (CETSA-MS thermal shift),GSK3B [3],Stabilization
same,Group (CETSA-MS thermal shift),CHEK1 [4],Destabilization
same,IC50,CDK4/cyclin D1,1 nM
same,cell viability (MTT),"MDA-MB-231 cells; 2.5 μM, 5 μM and 10 μM, compared to Comparator 1 and Comparator 2",decreases cell viability to a greater extent
same,"effect of zVAD-FMK on cell death, MTT assay",MDA-MB-231 cells; zVAD-FMK 20 μM (FIG. 25),unaffected by zVAD-FMK treatment
same,Group (CETSA-MS thermal shift),EPHA2,Stabilization
same,Group (CETSA-MS thermal shift),MAP11,Stabilization
same,Group (CETSA-MS thermal shift),AAK1 [5],Stabilization
same,Group (CETSA-MS thermal shift),TGFBR2,Stabilization
same,Group (CETSA-MS thermal shift),CDK2,Stabilization
same,Group (CETSA-MS thermal shift),MAPKAPK5,Destabilization
same,Group (CETSA-MS thermal shift),CDC42BPB,Destabilization
same,Group (CETSA-MS thermal shift),BMP2K [6],Stabilization
same,Group (CETSA-MS thermal shift),BUB1,Stabilization
same,Group (CETSA-MS thermal shift),STK17A,Stabilization
same,Group (CETSA-MS thermal shift),CPQ,Stabilization
same,Group (CETSA-MS thermal shift),PER3,Stabilization
same,Group (CETSA-MS thermal shift),GSK3B [7],Stabilization
same,Group (CETSA-MS thermal shift),LIMK1,Stabilization
same,Group (CETSA-MS thermal shift),UVSSA,Destabilization
same,Group (CETSA-MS thermal shift),ZNF260,Destabilization
same,Group (CETSA-MS thermal shift),CHEK1 [8],Destabilization
same,Group (CETSA-MS thermal shift),CDK5,Stabilization
same,Group (CETSA-MS thermal shift),ZCRB1,Stabilization
same,Caspase 3 levels,Caspase 3,decreasing
